According to patent US20160039825A1 (BIOGEN MA INC., priority 2013, published 2016):

Molecular target: T1, Human ATX protein (Homo sapiens, UniProt Q13822)
T1 construct: made in house
Experiment: Autotaxin (ATX) assay, FRET with FS-3 substrate
Format: biochemical
Settings: upper bound bins (no greater than 100, 250 or 500 nM); FS-3 2 μM, ATX 1.0 μg/mL
Source text: ATX (Autotaxin) is a 125 KDa glycoprotein with lysophospholipase D (LPLD) activity that generates the bioactive lipid lysophosphatidic acid (LPA) from lysophosphatidylcholine (LPC). The ATX biochemical assay utilizes a FRET (fluorescence resonance energy transfer) technology platform. The fluorescence signal of FRET substrate FS-3 is quenched due to intra-molecular FRET of a fluorophore to a non-fluorescing quencher (Ferguson, C. G., et al., Org Lett. 2006 May 11; 8(10): 2023-2026, which is incorporated by reference in its entirety). ATX catalyzes the hydrolysis of the substrate which separates the dabsyl quencher from the fluorescein reporter, which becomes fluorescent. The reaction is monitored by a SpectraMax M5 (Molecular Devices, Sunnyvale, Calif.) with at excitation wavelength 485 nm and emission wavelength […].
Fatty acid free-BSA (Sigma A8806): 10 mg/mL in H2O, stored at 4° C.
2×ATX assay buffer: 100 mM Tris, 280 mM NaCl, 10 mM KCl, 2 mM CaCl2, 2 mM MgCl2, pH 7.4.
Human ATX protein: expressed and purified in house. Stored at −80° C.
Substrate FS-3 (Echelon, L-2000): 100 μg in 77.74 μL H2O (1 mM stock), stored at −20° C.
384-well flat bottom plates—Corning #3575.
Compound dilution—All compounds were provided at 10 mM in 100% DMSO. In the first well, 2 μL of 10 mM compound was added to 78 μL of DMSO (1:40 dilution). In subsequent wells 3-fold dilution (total 10 dilutions) were performed.
1×ATX assay buffer was made up with a final concentration of 1 mg/mL fatty acid free-BSA using 2×ATX assay buffer, 10 mg/ml fatty acid free-BSA and ddH2O.
ATX protein was diluted with 1×ATX assay buffer to a concentration of 1.32 μg/mL (1.32×). 38 μL was added per well to the assay plate. The final concentration of ATX in the reaction as 1.0 μg/mL.
2 μL per well of compounds was transferred to provide the desired concentration. The plate was centrifuged, then incubated at room temperature for 30 minutes on the shaker.
FS-3 was diluted with 1×ATX assay buffer to a concentration of FS-3 of 10 μM (5×). Then, 10 μL was added per well to the assay plate. The final concentration of FS-3 in the reaction was 2 μM. The plate was centrifuged. The plate was kept shaking at room temperature for 2 hours. Because FS-3 substrate is light sensitive, plates were kept covered and protected from light.
Fluorescence was measured using SpectraMax M5 (excitation at 485 nm/emission at 538 nm, top read).

O=C(O)c1cc2n(n1)CCCN(C(=O)CCc1cc(C(F)(F)F)cc(C(F)(F)F)c1)C2 [Example 82, 5-(3-(3,5-bis(Trifluoromethyl)phenyl)propanoyl)-5,6,7,8-tetrahydro-4H-pyrazolo[1,5-a][1,4]diazepine-2-carboxylic acid] and CC1CN(C(=O)OCc2cc(C(F)(F)F)cc(C(F)(F)F)c2)Cc2cc(C(=O)O)nn2C1 (centres unmarked) [Example 111, 5-(((3,5-Bis(trifluoromethyl)benzyl)oxy)carbonyl)-7-methyl-5,6,7,8-tetrahydro-4H-pyrazolo[1,5-a][1,4]diazepine-2-carboxylic acid] cannot be ordered by IC50: no more than 100 nM for the first, no more than 100 nM for the second.

O=C(O)c1cc2n(n1)CCCN(C(=O)CCc1cc(Cl)cc(Cl)c1)C2 [Example 83, 5-(3-(3,5-Dichlorophenyl)propanoyl)-5,6,7,8-tetrahydro-4H-pyrazolo[1,5-a][1,4]diazepine-2-carboxylic acid] and NC(=O)c1cc2n(n1)CCCN(C(=O)OCc1cc(Cl)cc(Cl)c1)C2 [Example 102, 3,5-Dichlorobenzyl 2-carbamoyl-7,8-dihydro-4H-pyrazolo[1,5-a][1,4]diazepine-5(6H)-carboxylate] cannot be ordered by IC50: no more than 100 nM for the first, no more than 100 nM for the second.

O=C(N[C@H]1CC[C@@H](C(=O)O)CC1)c1cc2n(n1)CCCN(C(=O)OCc1cc(Cl)cc(Cl)c1)C2 [Example 85, (cis)-4-(5-(((3,5-Dichlorobenzyl)oxy)carbonyl)-5,6,7,8-tetrahydro-4H-pyrazolo[1,5-a][1,4]diazepine-2-carboxamido)cyclohexanecarboxylic acid] and O=C(N[C@H]1CC[C@H](C(=O)O)CC1)c1cc2n(n1)CCCN(C(=O)OCc1cc(Cl)cc(Cl)c1)C2 [Example 86, (trans)-4-(5-(((3,5-Dichlorobenzyl)oxy)carbonyl)-5,6,7,8-tetrahydro-4H-pyrazolo[1,5-a][1,4]diazepine-2-carboxamido)cyclohexanecarboxylic acid] cannot be ordered by IC50: no more than 100 nM for the first, no more than 250 nM for the second.

O=C(O)C1CCN(C(=O)c2cc3n(n2)CCCN(C(=O)OCc2cc(Cl)cc(Cl)c2)C3)CC1 [Example 87, 1-(5-(((3,5-Dichlorobenzyl)oxy)carbonyl)-5,6,7,8-tetrahydro-4H-pyrazolo[1,5-a][1,4]diazepine-2-carbonyl)piperidine-4-carboxylic acid] and O=C(OCc1cc(Cl)cc(Cl)c1)N1CCCn2nc(C(=O)N3CCC(O)CC3)cc2C1 [Example 101, 3,5-Dichlorobenzyl 2-(4-hydroxypiperidine-1-carbonyl)-7,8-dihydro-4H-pyrazolo[1,5-a][1,4]diazepine-5(6H)-carboxylate] cannot be ordered by IC50: no more than 100 nM for the first, no more than 100 nM for the second.

O=C(O)C1CCCN(C(=O)c2cc3n(n2)CCCN(C(=O)OCc2cc(Cl)cc(Cl)c2)C3)C1 (centres unmarked) [Example 88, 1-(5-(((3,5-dichlorobenzyl)oxy)carbonyl)-5,6,7,8-tetrahydro-4H-pyrazolo[1,5-a][1,4]diazepine-2-carbonyl)piperidine-3-carboxylic acid] and O=C(O)C1CC2CCC(C1)N2C(=O)c1cc2n(n1)CCCN(C(=O)OCc1cc(Cl)cc(Cl)c1)C2 (centres unmarked) [Example 97, 8-(5-(((3,5-Dichlorobenzyl)oxy)carbonyl)-5,6,7,8-tetrahydro-4H-pyrazolo[1,5-a][1,4]diazepine-2-carbonyl)-8-azabicyclo[3.2.1]octane-3-carboxylic acid] cannot be ordered by IC50: no more than 250 nM for the first, no more than 100 nM for the second.

O=C(O)C1CC2CCCC(C1)N2C(=O)c1cc2n(n1)CCCN(C(=O)CCc1cc(Cl)cc(Cl)c1)C2 (centres unmarked) [Example 90, 9-(5-(3-(3,5-Dichlorophenyl)propanoyl)-5,6,7,8-tetrahydro-4H-pyrazolo[1,5-a][1,4]diazepine-2-carbonyl)-9-azabicyclo[3.3.1]nonane-3-carboxylic acid] and O=C(O)C1CC2CCCC(C1)N2C(=O)c1cc2n(n1)CCN(C(=O)CCc1cc(Cl)cc(Cl)c1)C2 (centres unmarked) [Example 92, 9-(5-(3-(3,5-Dichlorophenyl)propanoyl)-4,5,6,7-tetrahydropyrazolo[1,5-a]pyrazine-2-carbonyl)-9-azabicyclo[3.3.1]nonane-3-carboxylic acid] cannot be ordered by IC50: no more than 100 nM for the first, no more than 100 nM for the second.

O=C(O)C1CC2CCC(C1)N2C(=O)c1cc2n(n1)CCN(C(=O)CCc1cc(Cl)cc(Cl)c1)C2 (centres unmarked) [Example 93, 8-(5-(3-(3,5-Dichlorophenyl)propanoyl)-4,5,6,7-tetrahydropyrazolo[1,5-a]pyrazine-2-carbonyl)-8-azabicyclo[3.2.1]octane-3-carboxylic acid] and O=C(CCc1cc(Cl)cc(Cl)c1)N1CCn2nc(C(=O)N3C4CCCC3CCC4)cc2C1 [Example 94, 1-(2-(9-Azabicyclo[3.3.1]nonane-9-carbonyl)-6,7-dihydropyrazolo[1,5-a]pyrazin-5(4H)-yl)-3-(3,5-dichlorophenyl)propan-1-one] cannot be ordered by IC50: no more than 500 nM for the first, no more than 100 nM for the second.

COC(=O)C1CC2CCCC(C1)N2C(=O)c1cc2n(n1)CCCN(C(=O)OCc1cc(Cl)cc(Cl)c1)C2 (centres unmarked) [Example 95, 3,5-Dichlorobenzyl 2-(3-(methoxycarbonyl)-9-azabicyclo[3.3.1]nonane-9-carbonyl)-7,8-dihydro-4H-pyrazolo[1,5-a][1,4]diazepine-5(6H)-carboxylate] and O=C(O)C1CC2CCCC(C1)N2C(=O)c1cc2n(c1)CCCN(C(=O)OCc1cc(Cl)cc(Cl)c1)C2 (centres unmarked) [Example 103] cannot be ordered by IC50: no more than 100 nM for the first, no more than 100 nM for the second.

CCOC(=O)c1cc2n(c1)CCCN(C(=O)OCc1cc(Cl)cc(Cl)c1)C2 [Example 99, 2-(3,5-Dichlorobenzyl) 8-ethyl 4,5-dihydro-1H-pyrrolo[1,2-a][1,4]diazepine-2,8(3H)-dicarboxylate] and O=C(O)c1cc2n(c1)CCCN(C(=O)OCc1cc(Cl)cc(Cl)c1)C2 [Example 100, 2-(((3,5-Dichlorobenzyl)oxy)carbonyl)-2,3,4,5-tetrahydro-1H-pyrrolo[1,2-a][1,4]diazepine-8-carboxylic acid] cannot be ordered by IC50: no more than 500 nM for the first, no more than 100 nM for the second.

CCOC(=O)c1cc2n(n1)CCCN(C(=O)OCc1cc(C)cc(C(F)(F)F)c1)C2 [Example 105, 2-Ethyl 5-(3-methyl-5-(trifluoromethyl)benzyl) 7,8-dihydro-4H-pyrazolo[1,5-a][1,4]diazepine-2,5(6H)-dicarboxylate] and Cc1cc(COC(=O)N2CCCn3nc(C(=O)O)cc3C2)cc(C(F)(F)F)c1 [Example 109, 5-(((3-Methyl-5-(trifluoromethyl)benzyl)oxy)carbonyl)-5,6,7,8-tetrahydro-4H-pyrazolo[1,5-a][1,4]diazepine-2-carboxylic acid] cannot be ordered by IC50: no more than 100 nM for the first, no more than 100 nM for the second.

CCOC(=O)c1cc2n(c1)CCCN(C(=O)OCc1cc(C(F)(F)F)cc(C(F)(F)F)c1)C2 [Example 106, 2-(3,5-Bis(trifluoromethyl)benzyl) 8-ethyl 4,5-dihydro-1H-pyrrolo[1,2-a][1,4]diazepine-2,8(3H)-dicarboxylate] and CCOC(=O)c1nn2c(c1Cl)CN(C(=O)OCc1cc(C(F)(F)F)cc(C(F)(F)F)c1)CCC2 [Example 108, 5-(3,5-Bis(trifluoromethyl)benzyl) 2-ethyl 3-chloro-7,8-dihydro-4H-pyrazolo[1,5-a][1.4]diazepine-2,5(6H)-dicarboxylate] cannot be ordered by IC50: no more than 100 nM for the first, no more than 100 nM for the second.

O=C(O)c1nn2c(c1Cl)CN(C(=O)OCc1cc(C(F)(F)F)cc(C(F)(F)F)c1)CCC2 [Example 110, 5-(((3,5-Bis(trifluoromethyl)benzyl)oxy)carbonyl)-3-chloro-5,6,7,8-tetrahydro-4H-pyrazolo[1,5-a][1,4]diazepine-2-carboxylic acid] and O=C(O)c1nn2c(c1Cl)CN(C(=O)OCc1cc(C(F)(F)F)cc(C(F)(F)F)c1)CC2 [Example 113, 5-(((3,5-Bis(trifluoromethyl)benzyl)oxy)carbonyl)-3-chloro-4,5,6,7-tetrahydropyrazolo[1,5-a]pyrazine-2-carboxylic acid] cannot be ordered by IC50: no more than 100 nM for the first, no more than 250 nM for the second.

CCOC(=O)c1nn2c(c1Cl)CN(C(=O)OCc1cc(C(F)(F)F)cc(C(F)(F)F)c1)CC2 [Example 112, 5-(3,5-Bis(trifluoromethyl)benzyl) 2-ethyl 3-chloro-6,7-dihydropyrazolo[1,5-a]pyrazine-2,5(4H)-dicarboxylate] and CCOC(=O)c1nn2c(c1Br)CN(C(=O)OCc1cc(C(F)(F)F)cc(C(F)(F)F)c1)CCC2 [Example 114, 5-(3,5-Bis(trifluoromethyl)benzyl) 2-ethyl 3-bromo-7,8-dihydro-4H-pyrazolo[1,5-a][1,4]diazepine-2,5(6H)-dicarboxylate] cannot be ordered by IC50: no more than 250 nM for the first, no more than 100 nM for the second.
